According to ChEMBL document CHEMBL5537108, “A comprehensive review on the global efforts on vaccines and repurposed drugs for combating COVID-19” (Eur J Med Chem, 2023):
Counter-ions that a name gives are not always drawn.

Tests used:
Format in all cases: functional, organism-based
SARS-CoV-2 [1] = assay: Antiviral activity against SARS-CoV-2 NRC-03-nhCoV infected in african green monkey Vero E6 cells assessed as inhibition of virus-induced cytopathic effect measured after 72 hrs by crystal violet staining based assay; conditions: Severe acute respiratory syndrome coronavirus 2, NRC-03-nhCoV, Vero C1008, 72 h
[2] = tested on: Middle East respiratory syndrome-related coronavirus; assay: Antiviral activity against MERS-CoV infected in human Calu-3 cells assessed as inhibition of viral growth by infection assay
SARS-CoV-2 [3] = assay: Antiviral activity against SARS-CoV-2 infected in African green monkey Vero cells assessed as reduction in viral replication measured after 72 hrs by qRT-PCR analysis; conditions: Severe acute respiratory syndrome coronavirus 2, Vero
[4] = tested on: Middle East respiratory syndrome-related coronavirus; assay: Antiviral activity against MERS-CoV infected in african green monkey Vero E6; conditions: Vero C1008
SARS-CoV-2 [5] = assay: Antiviral activity against SARS-CoV-2 B.1.1.7 infected in human Calu-3 cells assessed as inhibition of viral infection measured after 48 hrs by Hoechst 33342 staining based analysis; conditions: Severe acute respiratory syndrome coronavirus 2, B.1.1.7, Calu-3, 48 h
Ebolavirus [6] = assay: Antiviral activity against EBOV infected in human Huh-7 cells assessed as reduction in viral replication; conditions: Orthoebolavirus
SARS-CoV-2 [7] = assay: Antiviral activity against SARS-CoV-2 infected in African green monkey Vero cells assessed as reduction in virus-induced cytopathic effect incubated for 5 days by microscopic analysis; conditions: Severe acute respiratory syndrome coronavirus 2, Vero, 120 h
Ebolavirus [8] = assay: Antiviral activity against Ebola virus infected in African green monkey Vero cells incubated for 3 days by immunofocus assay; conditions: Orthoebolavirus, 72 h

`Cc1nc(Nc2ncc(C(=O)Nc3c(C)cccc3Cl)s2)cc(N2CCN(CCO)CC2)n1` [DASATINIB ANHYDROUS] gave an EC50 (SARS-CoV-2 [1]) of 2.1 µM.
`N=C(N)Nc1ccc(C(=O)Oc2ccc3cc(C(=N)N)ccc3c2)cc1` [NAFAMOSTAT MESYLATE] was tested, and the EC50 [2] was 0.087 µM.
`CC(C)c1nc(CN(C)C(=O)N[C@H](C(=O)N[C@@H](Cc2ccccc2)C[C@H](O)[C@H](Cc2ccccc2)NC(=O)OCc2cncs2)C(C)C)cs1` [RITONAVIR] showed an EC50 (SARS-CoV-2 [3]) of 8.63 µM.
`CN(C)C(=O)COC(=O)Cc1ccc(OC(=O)c2ccc(NC(=N)N)cc2)cc1` [CAMOSTAT] gave an EC50 [2] of 0.005 µM.
With `Cc1cccc(C)c1OCC(=O)N[C@@H](Cc1ccccc1)[C@@H](O)C[C@H](Cc1ccccc1)NC(=O)[C@H](C(C)C)N1CCCNC1=O` [LOPINAVIR] the EC50 (SARS-CoV-2 [3]) was 5.73 µM.
Work on `CN1CCN(CCOc2cc(OC3CCOCC3)c3c(Nc4c(Cl)ccc5c4OCO5)ncnc3c2)CC1` [SARACATINIB] yielded an EC50 [4] of 10 µM.
With `CCC(CC)COC(=O)[C@H](C)N[P@](=O)(OC[C@H]1O[C@@](C#N)(c2ccc3c(N)ncnn23)[C@H](O)[C@@H]1O)Oc1ccccc1` the EC50 (SARS-CoV-2 [5]) was 67 µM, the EC50 (Ebolavirus [6]) was 61.9 µM and the EC50 (SARS-CoV-2 [7]) was 0.01 µM. The EC50 (Ebolavirus [8]) was 0.77 µM.
